Test system: HeLa cells
Assay: MTT cytotoxicity of polymer/gene complexes in HeLa cells
Format: cell-based, human
Procedure: The cytotoxicity of the modified bPEI-25/gene complexes and modified bPEI-25/siRNA complexes was studied using the standard MTT assay protocol on HepG2, HeLa and SK-OV-3 cells. The GFP plasmid was used for complex formation and treatment of HepG2 and HeLa cells, while the luciferase plasmid was used for complex formation and treatment of SK-OV-3 cells.
HepG2, HeLa and SK-OV-3 cells were seeded onto 96-well plates at densities of 10000 cells, 5000 and 16000 cells per well, respectively, and allowed to grow to 60% to 70% confluency before treatment. Polymer/gene or polymer/siRNA complexes at various N/P ratios were prepared in water as described above. The cells in each well were then incubated with growth medium comprising 10 microliters of polymer/nucleic acid complexes and 100 microliters of fresh medium for 4 hours at 37° C. Following incubation, the medium was replaced with fresh growth medium and incubated further for 68 hours. […] A 100 microliter aliquot from each well was then transferred to a new 96-well plate for determination of absorbance using a microplate spectrophotometer at wavelengths of 550 nm and 690 nm. Relative cell viability was expressed as [A550−A690)sample/(A550−A690)control]×100%. Data were expressed as mean±standard deviations of at least eight replicates per N/P ratio.

## Branched Polyethylenimine [bPEI-25]
  Maximum N/P ratio for Cell Viability ≧80%, HeLa Max N/P: 20

— patent US8703197B2, “Branched polyamines for delivery of biologically active materials” (International Business Machines Corporation, priority 2012, dated 2014)
